The target of one experiment is T1, human Nav1.7 (Homo sapiens, UniProt Q15858).
T1 construct: expressed in transfected cells
Description: PatchXpress sodium current measurement, inactivated state block, Nav1.7. Format: cell-based. To be noted: channels stably expressed in HEK 293 cells, double-pulse protocol, 22° C. The method in brief: (§1)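 HEK293 cells stably expressing channel; automated patch clamp at 22 °C, double-pulse protocol: hold 20 mV below V½ inactivation, 8000 ms prepulse 7 mV above V½, 2 ms step to −120 mV, 20 ms test pulse to −20 mV. CsF-based internal (pH 7.3), NMDG/40 mM NaCl external (pH 7.5). Rundown-corrected % inhibition (≥2 concentrations) fitted to Hill equation for IC50.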

The target in a further experiment is T2, human Nav1.5 (Homo sapiens, UniProt Q14524).
T2 construct: expressed in transfected cells
In words: PatchXpress sodium current measurement, inactivated state block, Nav1.5. To be noted: determined by PatchXpress measurement, HEK 293 cells. The experiment is classed as cell-based. The method in brief:
as §1

The mark [1] stands for this setting: read-out: potency for the Nav 1.7 sodium ion channel (1.7=).

Where two headings read alike, the source gives them in different places.

T1 sequence (Q15858 whole entry): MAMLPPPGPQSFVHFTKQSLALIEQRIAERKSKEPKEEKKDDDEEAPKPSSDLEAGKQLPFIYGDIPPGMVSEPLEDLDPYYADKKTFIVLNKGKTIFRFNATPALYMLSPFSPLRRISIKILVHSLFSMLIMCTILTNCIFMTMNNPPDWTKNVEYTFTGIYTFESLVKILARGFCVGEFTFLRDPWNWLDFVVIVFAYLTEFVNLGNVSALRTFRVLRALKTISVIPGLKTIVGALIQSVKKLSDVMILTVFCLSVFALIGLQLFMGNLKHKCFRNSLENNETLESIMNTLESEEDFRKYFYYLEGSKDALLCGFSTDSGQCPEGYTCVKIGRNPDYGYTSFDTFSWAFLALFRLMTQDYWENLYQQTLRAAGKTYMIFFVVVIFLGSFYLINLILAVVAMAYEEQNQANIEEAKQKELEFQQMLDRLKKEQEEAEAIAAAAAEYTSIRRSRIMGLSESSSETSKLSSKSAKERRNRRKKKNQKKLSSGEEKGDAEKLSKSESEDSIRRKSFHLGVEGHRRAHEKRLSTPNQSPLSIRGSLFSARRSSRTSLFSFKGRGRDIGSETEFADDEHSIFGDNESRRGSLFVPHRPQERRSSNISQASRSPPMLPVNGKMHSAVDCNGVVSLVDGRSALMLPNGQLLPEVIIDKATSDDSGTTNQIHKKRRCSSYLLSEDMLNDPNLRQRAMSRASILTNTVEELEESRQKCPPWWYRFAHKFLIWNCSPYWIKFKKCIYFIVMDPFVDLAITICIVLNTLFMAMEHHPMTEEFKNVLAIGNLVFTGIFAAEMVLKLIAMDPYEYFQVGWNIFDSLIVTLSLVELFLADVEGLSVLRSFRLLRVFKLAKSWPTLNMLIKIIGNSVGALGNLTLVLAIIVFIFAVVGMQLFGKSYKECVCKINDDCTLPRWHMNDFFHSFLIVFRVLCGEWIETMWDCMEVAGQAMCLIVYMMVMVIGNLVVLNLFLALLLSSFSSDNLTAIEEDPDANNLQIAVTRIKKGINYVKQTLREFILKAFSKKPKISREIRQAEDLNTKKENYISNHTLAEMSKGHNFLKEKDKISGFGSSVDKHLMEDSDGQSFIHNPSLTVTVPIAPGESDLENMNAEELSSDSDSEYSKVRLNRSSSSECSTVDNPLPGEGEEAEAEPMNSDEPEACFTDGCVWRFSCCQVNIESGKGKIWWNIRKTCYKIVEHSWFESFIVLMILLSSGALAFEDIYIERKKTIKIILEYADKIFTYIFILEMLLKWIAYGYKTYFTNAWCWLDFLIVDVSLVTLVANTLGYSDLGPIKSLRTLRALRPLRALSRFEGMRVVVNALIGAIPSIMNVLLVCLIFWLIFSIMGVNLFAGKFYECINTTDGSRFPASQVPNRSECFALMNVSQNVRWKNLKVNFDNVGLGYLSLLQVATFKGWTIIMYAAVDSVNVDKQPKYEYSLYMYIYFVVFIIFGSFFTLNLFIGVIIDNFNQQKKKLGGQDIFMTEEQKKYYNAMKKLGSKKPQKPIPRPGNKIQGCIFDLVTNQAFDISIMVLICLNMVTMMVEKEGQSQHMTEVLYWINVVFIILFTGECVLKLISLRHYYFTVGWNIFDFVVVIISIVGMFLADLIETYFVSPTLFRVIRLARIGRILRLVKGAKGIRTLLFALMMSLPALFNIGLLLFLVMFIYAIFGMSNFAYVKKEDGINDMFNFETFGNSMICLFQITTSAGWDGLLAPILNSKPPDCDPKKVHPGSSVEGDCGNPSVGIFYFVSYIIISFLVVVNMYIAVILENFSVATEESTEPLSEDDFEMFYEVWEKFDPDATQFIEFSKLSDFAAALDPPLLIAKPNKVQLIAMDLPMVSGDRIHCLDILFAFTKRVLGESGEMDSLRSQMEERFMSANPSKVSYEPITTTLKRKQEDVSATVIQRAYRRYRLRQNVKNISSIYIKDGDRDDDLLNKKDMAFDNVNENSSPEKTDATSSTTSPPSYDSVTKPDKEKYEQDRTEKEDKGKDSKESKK
T2 sequence (Q14524 whole entry): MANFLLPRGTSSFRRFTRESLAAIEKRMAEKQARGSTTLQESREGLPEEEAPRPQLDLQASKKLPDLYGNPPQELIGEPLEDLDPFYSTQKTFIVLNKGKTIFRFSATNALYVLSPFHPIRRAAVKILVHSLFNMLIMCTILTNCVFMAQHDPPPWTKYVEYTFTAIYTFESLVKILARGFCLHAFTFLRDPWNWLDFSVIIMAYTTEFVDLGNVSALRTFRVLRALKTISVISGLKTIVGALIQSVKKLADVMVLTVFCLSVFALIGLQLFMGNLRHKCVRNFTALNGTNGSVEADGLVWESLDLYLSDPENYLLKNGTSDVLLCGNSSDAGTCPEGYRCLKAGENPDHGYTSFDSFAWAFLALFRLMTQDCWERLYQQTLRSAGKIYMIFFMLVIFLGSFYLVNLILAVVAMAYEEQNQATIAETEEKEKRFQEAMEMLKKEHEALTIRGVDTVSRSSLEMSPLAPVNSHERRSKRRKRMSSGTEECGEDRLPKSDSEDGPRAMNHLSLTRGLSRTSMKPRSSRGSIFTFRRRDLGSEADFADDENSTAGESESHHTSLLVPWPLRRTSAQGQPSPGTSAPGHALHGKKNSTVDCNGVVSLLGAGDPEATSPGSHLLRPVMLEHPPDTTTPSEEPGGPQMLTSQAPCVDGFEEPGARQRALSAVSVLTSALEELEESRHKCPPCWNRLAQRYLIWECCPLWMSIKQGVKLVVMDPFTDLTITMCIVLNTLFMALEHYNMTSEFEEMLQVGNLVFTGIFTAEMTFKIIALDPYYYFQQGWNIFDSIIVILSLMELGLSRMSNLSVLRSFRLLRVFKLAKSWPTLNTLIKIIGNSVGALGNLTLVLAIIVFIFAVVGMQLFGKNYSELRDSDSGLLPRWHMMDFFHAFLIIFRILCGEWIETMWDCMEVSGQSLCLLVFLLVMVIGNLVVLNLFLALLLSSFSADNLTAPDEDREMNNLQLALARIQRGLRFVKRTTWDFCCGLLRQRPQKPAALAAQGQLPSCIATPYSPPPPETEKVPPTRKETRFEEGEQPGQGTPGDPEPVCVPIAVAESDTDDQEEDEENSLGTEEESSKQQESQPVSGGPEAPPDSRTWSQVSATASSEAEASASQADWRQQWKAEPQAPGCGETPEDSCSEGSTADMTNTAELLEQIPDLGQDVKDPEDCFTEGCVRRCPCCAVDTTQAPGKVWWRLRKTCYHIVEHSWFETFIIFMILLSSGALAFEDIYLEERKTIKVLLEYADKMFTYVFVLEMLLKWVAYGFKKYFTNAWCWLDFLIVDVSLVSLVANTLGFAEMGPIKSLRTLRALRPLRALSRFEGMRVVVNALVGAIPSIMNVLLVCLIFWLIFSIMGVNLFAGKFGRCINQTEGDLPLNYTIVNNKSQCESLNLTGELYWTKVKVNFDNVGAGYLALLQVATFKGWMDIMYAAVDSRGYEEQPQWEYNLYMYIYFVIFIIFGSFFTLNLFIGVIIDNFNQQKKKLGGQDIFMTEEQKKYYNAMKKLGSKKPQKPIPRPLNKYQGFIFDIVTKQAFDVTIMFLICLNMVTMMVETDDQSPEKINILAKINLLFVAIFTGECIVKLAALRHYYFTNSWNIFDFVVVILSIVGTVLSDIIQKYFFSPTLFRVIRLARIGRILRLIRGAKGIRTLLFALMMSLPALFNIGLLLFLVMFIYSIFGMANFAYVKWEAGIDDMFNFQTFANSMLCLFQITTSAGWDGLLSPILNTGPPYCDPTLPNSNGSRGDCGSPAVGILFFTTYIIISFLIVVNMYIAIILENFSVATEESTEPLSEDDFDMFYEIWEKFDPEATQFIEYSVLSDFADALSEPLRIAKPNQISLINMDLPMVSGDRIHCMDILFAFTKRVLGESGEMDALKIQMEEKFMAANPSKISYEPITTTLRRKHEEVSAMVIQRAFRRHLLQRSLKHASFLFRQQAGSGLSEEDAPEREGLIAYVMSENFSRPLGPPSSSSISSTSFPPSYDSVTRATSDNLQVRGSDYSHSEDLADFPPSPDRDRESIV

With `C[C@H](c1ccccc1C1CCCN1)n1c(=O)oc2cc(S(=O)(=O)Nc3cccc(F)n3)c(F)cc21` (stereo partly drawn) [Ex20-1, 5-fluoro-N-(6-fluoropyridin-2-yl)-2-oxo-3-{(1R)-1-[2-(pyrrolidin-2-yl)phenyl]ethyl}-2,3-dihydro-1,3-benzoxazole-6-sulfonamide], the IC50 on human Nav1.7 (setting [1]) is 98 nM. For the same compound, the “ratio of Nav 1.5:Nav 1.7 potency” value at human Nav1.5 was 120.
For the compound `C[C@H](c1cccc(C#CCN)c1)n1c(=O)oc2cc(S(=O)(=O)Nc3cccc(F)n3)c(F)cc21` [Ex21-21, 3-{(1R)-1-[3-(3-aminoprop-1-yn-1-yl)phenyl]ethyl}-5-fluoro-N-(6-fluoropyridin-2-yl)-2-oxo-2,3-dihydro-1,3-benzoxazole-6-sulfonamide], the IC50 on human Nav1.7 (setting [1]) came to 155 nM. Moreover, on human Nav1.5, the “ratio of Nav 1.5:Nav 1.7 potency” value amounted to 193.
In the case of `C[C@H](c1ccccc1C1=C[C@@H]2CC[C@H](C1)N2)n1c(=O)oc2cc(S(=O)(=O)Nc3cccc(F)n3)c(F)cc21` [Ex7-8, 3-[(1R)-1-{2-[(1S,5R)-8-azabicyclo[3.2.1]oct-2-en-3-yl]phenyl}ethyl]-5-fluoro-N-(6-fluoropyridin-2-yl)-2-oxo-2,3-dihydro-1,3-benzoxazole-6-sulfonamide], the IC50 at human Nav1.7 (potency for the Nav 1.7 sodium ion channel (1.7=)) came to 81 nM. Further, on human Nav1.5, the “ratio of Nav 1.5:Nav 1.7 potency” value amounted to 681.
With `C[C@H](c1ccccc1C1CNC1)n1c(=O)oc2cc(S(=O)(=O)Nc3ccc(F)cn3)c(F)cc21` [Ex15-6, 3-[(1R)-1-(2-azetidin-3-ylphenyl)ethyl]-5-fluoro-N-(5-fluoropyridin-2-yl)-2-oxo-2,3-dihydro-1,3-benzoxazole-6-sulfonamide], the IC50 at human Nav1.7 (setting [1]) amounted to 145 nM. In addition, the “ratio of Nav 1.5:Nav 1.7 potency” value on human Nav1.5 stood at 207.
On to `Cc1cc2c(cc1S(=O)(=O)Nc1cccc(F)n1)oc(=O)n2Cc1cccc2c1CC(N)CC2` (single isomer, unassigned) [Ex17-6, (S or R)-3-[(7-amino-5,6,7,8-tetrahydronaphthalen-1-yl)methyl]-N-(6-fluoropyridin-2-yl)-5-methyl-2-oxo-2,3-dihydro-1,3-benzoxazole-6-sulfonamide], for which the IC50 at human Nav1.7 (setting [1]) amounted to 12 nM. Further, the “ratio of Nav 1.5:Nav 1.7 potency” value at human Nav1.5 is listed as 178.
Consider `C[C@H](c1ccccc1C#C[C@H]1CCCC[C@@H]1N)n1c(=O)oc2cc(S(=O)(=O)Nc3cccc(F)n3)c(F)cc21` (mixture of isomers) [Ex8-5, 3-[(1R)-1-(2-{[(1R,2S and 1S, 2R)-2-aminocyclohexyl]ethynyl}phenyl)ethyl]-5-fluoro-N-(6-fluoropyridin-2-yl)-2-oxo-2,3-dihydro-1,3-benzoxazole-6-sulfonamide], for which the IC50 at human Nav1.7 (setting [1]) turned out to be 25 nM. The “ratio of Nav 1.5:Nav 1.7 potency” value at human Nav1.5 was found to be 714.
On the same counts, the results for `C[C@H](c1cccc(C#CC(C)(C)N)c1)n1c(=O)oc2cc(S(=O)(=O)Nc3cccc(F)n3)c(F)cc21` [Ex21-1, 3-{(1R)-1-[3-(3-amino-3-methylbut-1-yn-1-yl)phenyl]ethyl}-5-fluoro-N-(6-fluoropyridin-2-yl)-2-oxo-2,3-dihydro-1,3-benzoxazole-6-sulfonamide] are 229 nM and 151.
For `C[C@H](c1cccc(CCN)c1)n1c(=O)oc2cc(S(=O)(=O)Nc3cccc(F)n3)c(F)cc21` [Ex19-11, 3-{(1R)-1-[3-(2-aminoethyl)phenyl]ethyl}-5-fluoro-N-(6-fluoropyridin-2-yl)-2-oxo-2,3-dihydro-1,3-benzoxazole-6-sulfonamide] the same measures were 103 nM and 244.
Consider `C[C@H](c1cccc(C#CCN2CCNCC2)c1)n1c(=O)oc2cc(S(=O)(=O)Nc3cccc(F)n3)c(F)cc21` [Ex21-11, 5-fluoro-N-(6-fluoropyridin-2-yl)-2-oxo-3-[(1R)-1-{3-[3-(piperazin-1-yl)prop-1-yn-1-yl]phenyl}ethyl]-2,3-dihydro-1,3-benzoxazole-6-sulfonamide], for which the IC50 at human Nav1.7 (setting [1]) amounted to 189 nM. For the same compound, at human Nav1.5, the “ratio of Nav 1.5:Nav 1.7 potency” value came out at 137.
For `C[C@H](c1ccccc1CN)n1c(=O)oc2cc(S(=O)(=O)Nc3cccc(F)n3)c(F)cc21` [Ex9-1, (R)-3-(1-(2-(aminomethyl)phenyl)ethyl)-5-fluoro-N-(6-fluoropyridin-2-yl)-2-oxo-2,3-dihydrobenzo[d]oxazole-6-sulfonamide] the same measures were 24 nM and 1525.

The values are drawn from US9624208B2, “Benzoxazolinone compounds with selective activity in voltage-gated sodium channels” (Merck Sharp & Dohme Corp., priority 2012, dated 2017).
